Key:
mouse [1] = settings: Carcinogenicity, cd1, Oral, Feed, dose end: 20 month, group: systemic
rat [2] = settings: Multigenerational reproductive toxicity study, sprague dawley, Oral, Feed, dose end: 2 generation
dog [3] = settings: Chronic toxicity; beagle; Oral; Feed; dose end: 52 week; group: systemic; systemic / organ weight / liver / absolute + systemic / organ weight / liver / relative to body weight
rat [4] = settings: Combined chronic toxicity/carcinogenicity; fischer; Oral; Feed; dose end: 104 week; group: systemic; systemic / hematology / methemoglobin / methemoglobin + systemic / pathology microscopic / kidney / mineralization + systemic / pathology …
dog [5] = settings: Chronic toxicity, beagle, Oral, Feed, dose end: 52 week, group: systemic
rabbit = settings: Prenatal developmental toxicity study, new zealand white, Oral, Gavage/Intubation, dose end: 18 GD
dog [6] = settings: Subchronic oral toxicity in nonrodent, beagle, Feed, dose end: 13 week, group: systemic, systemic / clinical chemistry / alanine aminotransferase (alt/sgpt) / alanine aminotransferase (alt/sgpt) + systemic / clinical chemistry / …
rat [7] = settings: Subchronic oral toxicity in rodents, fischer, Feed, dose end: 84 day, group: systemic, systemic / clinical chemistry / thyroxine (t4) / thyroxine (t4)
mouse [8] = settings: Carcinogenicity; other; Oral; Feed; dose end: 18 month; group: systemic; systemic / pathology microscopic / liver / hypertrophy + systemic / pathology microscopic / liver / necrosis
mouse [9] = settings: Subchronic oral toxicity in rodents, cd1, Feed, dose end: 13 week, group: systemic, systemic / pathology microscopic / liver / cytomegaly + systemic / pathology microscopic / spleen / hematopoietic cell proliferation + …
rat [10] = settings: Prenatal developmental toxicity study, sprague dawley, Oral, Gavage/Intubation, dose end: 15 GD
rat [11] = settings: Prenatal developmental toxicity study, Oral, Gavage/Intubation, dose end: 16 GD
rat [12] = settings: Subchronic oral toxicity in rodents, Feed, dose end: 3 month, group: systemic
rat [13] = settings: Multigenerational reproductive toxicity study, sprague dawley, Oral, Feed, dose end: 2 generation; remark: listed apart in the source
dog [14] = settings: Subchronic oral toxicity in nonrodent, beagle, Feed, dose end: 13 week, group: systemic, systemic / pathology microscopic / kidney / pyelonephritis
dog [15] = settings: Chronic toxicity, beagle, Oral, Feed, dose end: 104 week, group: systemic
mouse [16] = settings: Carcinogenicity, other, Oral, Feed, dose end: 105 week, group: systemic
rat [17] = settings: Combined chronic toxicity/carcinogenicity, wistar, Oral, Feed, dose end: 24 month, group: systemic
[18] = systemic / pathology microscopic / eye / cataract
[19] = systemic / pathology microscopic / eye / cataract + systemic / hematology / erythrocyte (rbc) count differential / erythrocyte (rbc) + …
[20] = group: offspring, developmental / offspring survival late / viability index / viability index + reproductive / offspring survival early / offspring survival …
[21] = group: parental, systemic / pathology microscopic / liver / congestion
[22] = systemic / in life observation / body weight / body weight gain
[23] = group: developmental, developmental / developmental malformation / bone / full supernumerary + developmental / developmental malformation / bone / supernumerary
[24] = group: developmental, developmental / developmental malformation / bone / full supernumerary + developmental / developmental malformation / bone / supernumerary…
[25] = group: maternal, systemic / pathology microscopic / liver / hypertrophy + systemic / pathology microscopic / liver / vacuolization
[26] = group: maternal, systemic / pathology microscopic / liver / hypertrophy + systemic / pathology microscopic / liver / vacuolization + systemic / in life …
[27] = total + systemic / clinical chemistry / phosphorus / phosphorus + systemic…
[28] = group: developmental, developmental / developmental malformation / bone / delayed ossification + developmental / developmental malformation / bone / full …
[29] = group: maternal, systemic / in life observation / body weight / body weight gain + systemic / in life observation / body weight / body weight + systemic / in…
[30] = group: developmental, developmental / developmental malformation / bone / incomplete ossification + systemic / in life observation / body weight / fetal weight
[31] = group: maternal, reproductive / reproductive performance / postimplantation loss / postimplantation loss + systemic / in life observation / body weight / …
[32] = systemic / clinical chemistry / lipids, total / lipids, total + systemic / organ weight / ovary / relative to body weight + systemic / organ…
[33] = group: offspring, developmental / offspring survival late / [other] / [other]
[34] = group: parental, systemic / organ weight / kidney / relative to body weight + systemic / organ weight / spleen / absolute + systemic / organ weight / spleen…
[35] = group: parental, systemic / organ weight / liver / absolute + systemic / organ weight / liver / relative to body weight
[36] = systemic / in life observation / body weight / body weight + systemic / in life observation / body weight / body weight gain
[37] = systemic / pathology microscopic / liver / focal cellular change + systemic / pathology microscopic / liver / hypertrophy + systemic / …
[38] = systemic / pathology microscopic / liver / hypertrophy

`CC(C)N(C(=O)COc1nnc(C(F)(F)F)s1)c1ccc(F)cc1` [Flufenacet] showed an LOAEL (mouse [1]; [18]) of 7.4 mg/kg/day, an NOAEL (mouse [1]; [18]) of less than 7.4 mg/kg/day and an LEL (mouse [1]; [19]) of 7.4 mg/kg/day. The NEL (mouse [1]; [19]) was less than 7.4 mg/kg/day, the LEL (rat [2]; [20]) was 7.3 mg/kg/day and the LOAEL (rat [2]; [20]) was 7.3 mg/kg/day. For the same compound, the NEL (rat [2]; [20]) was 1.4 mg/kg/day, the NOAEL (rat [2]; [20]) was 1.4 mg/kg/day and the LEL (rat [2]; [21]) was 1.4 mg/kg/day. It also gave an NEL (rat [2]; [21]) of less than 1.4 mg/kg/day, an LOAEL (rat [2]; group: parental, systemic / pathology microscopic / liver / hypertrophy) of 7.3 mg/kg/day and an NOAEL (rat [2]; group: parental, systemic / pathology microscopic / liver / hypertrophy + systemic / pathology microscopic / liver / congestion) of 1.4 mg/kg/day. It also gave an LEL (dog [3]) of 17.3 mg/kg/day, an LOAEL (dog [3]) of 17.3 mg/kg/day and an NEL (dog [3]) of 3.15 mg/kg/day. It also gave an NOAEL (dog [3]) of 3.15 mg/kg/day, an LEL (rat [4]) of 1.2 mg/kg/day and an LOAEL (rat [4]) of 1.2 mg/kg/day. For the same compound, the NEL (rat [4]) was less than 1.2 mg/kg/day, the NOAEL (rat [4]) was less than 1.2 mg/kg/day and the LOAEL (dog [5]; systemic / clinical chemistry / alanine aminotransferase (alt/sgpt) / alanine aminotransferase (alt/sgpt) + systemic / clinical chemistry / …) was 26.8 mg/kg/day. It also gave an LEL (dog [5]; [22]) of 1.14 mg/kg/day, an NEL (dog [5]; [22]) of less than 1.14 mg/kg/day and an NOAEL (dog [5]; systemic / in life observation / body weight / body weight gain + systemic / clinical chemistry / alanine aminotransferase (alt/sgpt) / …) of 1.14 mg/kg/day. The LEL (rabbit; [23]) was 125 mg/kg/day, the LOAEL (rabbit; [23]) was 125 mg/kg/day and the NEL (rabbit; [24]) was 25 mg/kg/day. It also gave an NOAEL (rabbit; [24]) of 25 mg/kg/day, an LEL (rabbit; [25]) of 25 mg/kg/day and an LOAEL (rabbit; [25]) of 25 mg/kg/day. The NEL (rabbit; [26]) was 5 mg/kg/day, the NOAEL (rabbit; [26]) was 5 mg/kg/day and the LEL (dog [6]) was 1.67 mg/kg/day. It also gave an LOAEL (dog [6]) of 6.9 mg/kg/day, an NEL (dog [6]) of less than 1.67 mg/kg/day and an NOAEL (dog [6]) of 1.7 mg/kg/day. It also gave an LOAEL (rat [7]; total) of 6 mg/kg/day, an NOAEL (rat [7]; total) of less than 6 mg/kg/day and an LEL (rat [7]; [27]) of 6 mg/kg/day. For the same compound, the NEL (rat [7]; [27]) was less than 6 mg/kg/day, the LEL (mouse [8]) was 2.1 mg/kg/day and the LOAEL (mouse [8]) was 2.1 mg/kg/day. The NEL (mouse [8]) was less than 2.1 mg/kg/day, the NOAEL (mouse [8]) was less than 2.1 mg/kg/day and the LEL (mouse [9]) was 64.2 mg/kg/day. The LOAEL (mouse [9]) was 64.2 mg/kg/day, the NEL (mouse [9]) was 18.2 mg/kg/day and the NOAEL (mouse [9]) was 18.2 mg/kg/day. The LEL (rat [10]; [28]) was 125 mg/kg/day, the LOAEL (rat [10]; [28]) was 125 mg/kg/day and the NEL (rat [10]; [28]) was 25 mg/kg/day. It also gave an NOAEL (rat [10]; [28]) of 25 mg/kg/day, an LOAEL (rat [10]; group: maternal, systemic / in life observation / body weight / body weight gain) of 125 mg/kg/day and an LEL (rat [10]; [29]) of 125 mg/kg/day. For the same compound, the NEL (rat [10]; [29]) was 25 mg/kg/day and the NOAEL (rat [10]; [29]) was 25 mg/kg/day.

In the case of `CCOC(=O)C(C)Oc1ccc(Oc2nc3ccc(Cl)cc3o2)cc1` (configuration not stated) [Fenoxaprop-ethyl], the LEL (rat [11]; [30]) is reported as 100 mg/kg/day, the LOAEL (rat [11]; [30]) is reported as 100 mg/kg/day and the NEL (rat [11]; [30]) is reported as 32 mg/kg/day. The NOAEL (rat [11]; [30]) was 32 mg/kg/day, the LEL (rat [11]; [31]) was 100 mg/kg/day and the LOAEL (rat [11]; [31]) was 100 mg/kg/day. It also gave an NEL (rat [11]; [31]) of 32 mg/kg/day, an NOAEL (rat [11]; [31]) of 32 mg/kg/day and an LEL (rat [12]; [32]) of 1 mg/kg/day. It also gave an NEL (rat [12]; [32]) of less than 1 mg/kg/day, an LOAEL (rat [12]; systemic / organ weight / adrenal gland / relative to body weight) of 4 mg/kg/day and an NOAEL (rat [12]; systemic / organ weight / adrenal gland / relative to body weight + systemic / clinical chemistry / cholesterol / cholesterol + systemic / …) of 1 mg/kg/day. The LEL (rat [13]; [33]) was 0.25 mg/kg/day, the LOAEL (rat [13]; [33]) was 0.25 mg/kg/day and the NEL (rat [13]; [33]) was less than 0.25 mg/kg/day. For the same compound, the NOAEL (rat [13]; [33]) was less than 0.25 mg/kg/day, the LEL (rat [13]; [34]) was 1.94 mg/kg/day and the NEL (rat [13]; [34]) was 0.33 mg/kg/day. The LOAEL (rat [13]; [35]) was 9.05 mg/kg/day, the NOAEL (rat [13]; [35]) was 1.53 mg/kg/day and the LEL (dog [14]) was 2 mg/kg/day. The LOAEL (dog [14]) was 2 mg/kg/day, the NEL (dog [14]) was 0.4 mg/kg/day and the NOAEL (dog [14]) was 0.4 mg/kg/day. For the same compound, the LEL (dog [15]; systemic / in life observation / body weight / body weight) was 0.375 mg/kg/day, the LOAEL (dog [15]; [36]) was 1.88 mg/kg/day and the NEL (dog [15]; [36]) was 0.075 mg/kg/day. For the same compound, the NOAEL (dog [15]; [36]) was 0.375 mg/kg/day, the LOAEL (mouse [16]; [37]) was 16.6 mg/kg/day and the NOAEL (mouse [16]; [37]) was 5.7 mg/kg/day. For the same compound, the LEL (mouse [16]; [38]) was 5.7 mg/kg/day, the NEL (mouse [16]; [38]) was less than 5.7 mg/kg/day and the LOAEL (rat [17]; systemic / clinical chemistry / cholesterol / cholesterol + systemic / clinical chemistry / lipids, total / lipids, total) was 9 mg/kg/day. The NOAEL (rat [17]; systemic / clinical chemistry / cholesterol / cholesterol + systemic / clinical chemistry / lipids, total / lipids, total + systemic / organ…) was 1.5 mg/kg/day, the NEL (rat [17]; systemic / clinical chemistry / cholesterol / cholesterol + systemic / hematology / leukocyte (wbc) count differential / leukocyte (wbc) + …) was 0.25 mg/kg/day and the LEL (rat [17]; systemic / clinical chemistry / cholesterol / cholesterol + systemic / pathology microscopic / liver / glycogen liberation + systemic / …) was 1.5 mg/kg/day.

Reference: EPA's ToxRefDB 2
